The text below walks through data of US4946841A, “Pyridazine 3,5-dihydroxy carboxylic acids and derivatives thereof, the use thereof for hypercholesterolemia” (Hoechst Aktiengesellachaft, priority 1988, dated 1990).

Test [1] has as its system cholesterol biosynthesis in HEP-G2 cells. Put plainly: Inhibition of cholesterol biosynthesis in cell cultures of HEP-G2 cells. Format: cell-based. The following applies: Homo sapiens, HepG2, 14C-acetate precursor, read-out: IC50, concentration which brings about 50% inhibition of cholesterol biosynthesis. As to the method:
Monolayers of HEP-G2 cells in lipoprotein-free nutrient medium were pre-incubated with appropriate concentrations of the test substances for a defined time (for example 1 hour) and, after addition of the labeled precursor, for example sodium ^14 C-acetate, incubation was continued (for example for 3 hours). After addition of an internal standard (^3 H-cholesterol) a portion of the cells was hydrolyzed with alkali. The lipids from the hydrolyzed cells were extracted with chloroform/methanol.
This Lipid mixture was, after addition of carrier cholesterol, subjected to preparative thin-layer chromatography, the cholesterol band was visualized with iodine vapor and then isolated, and the amount of ^14 C-cholesterol formed from the ^14 C-precursor was determined by scintigraphy. Cellular protein was determined in an aliquot of the cells, so that it is possible to calculate the amount of ^14 C-cholesterol formed per unit time per mg of cellular protein. Comparison of this figure with the amount of ^14 C-cholesterol formed per mg of cellular protein and unit time in a culture treated in the same way but free of test substance yielded the inhibitory effect of the particular test product on cholesterol biosynthesis of HEP-G2 cell cultures. […]

For test [2], the target named is T1, HMG-CoA reductase (Rattus norvegicus, UniProt P51639).
T1 construct: solubilized enzyme preparations from liver microsomes of rats; from tissue; host or cells: rat liver microsomes, solubilized; rats induced with cholestyramine (Cuemid)
T1 sequence (P51639 1-887): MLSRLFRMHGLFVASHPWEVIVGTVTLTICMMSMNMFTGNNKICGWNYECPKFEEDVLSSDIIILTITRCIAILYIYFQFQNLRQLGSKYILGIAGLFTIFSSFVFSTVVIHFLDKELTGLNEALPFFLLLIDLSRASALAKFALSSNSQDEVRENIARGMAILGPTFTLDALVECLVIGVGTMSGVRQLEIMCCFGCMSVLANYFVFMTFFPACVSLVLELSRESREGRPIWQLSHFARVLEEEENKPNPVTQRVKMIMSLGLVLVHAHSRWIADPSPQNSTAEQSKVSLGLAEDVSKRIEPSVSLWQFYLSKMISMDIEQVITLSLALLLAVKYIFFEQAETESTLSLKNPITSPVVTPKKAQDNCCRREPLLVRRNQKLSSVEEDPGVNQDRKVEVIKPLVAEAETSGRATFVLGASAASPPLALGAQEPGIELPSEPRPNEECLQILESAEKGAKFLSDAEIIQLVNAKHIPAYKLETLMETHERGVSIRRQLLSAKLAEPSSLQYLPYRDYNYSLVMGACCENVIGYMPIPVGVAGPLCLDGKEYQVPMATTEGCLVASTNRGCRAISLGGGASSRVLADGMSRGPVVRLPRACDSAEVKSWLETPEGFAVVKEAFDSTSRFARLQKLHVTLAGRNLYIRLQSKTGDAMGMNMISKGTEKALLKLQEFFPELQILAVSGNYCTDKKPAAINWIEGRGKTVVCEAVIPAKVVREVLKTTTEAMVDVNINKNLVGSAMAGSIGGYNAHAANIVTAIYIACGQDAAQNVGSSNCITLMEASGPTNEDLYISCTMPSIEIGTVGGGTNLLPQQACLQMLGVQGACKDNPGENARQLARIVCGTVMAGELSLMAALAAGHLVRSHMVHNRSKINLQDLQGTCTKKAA
Nature of the test: HMG-CoA reductase activity in enzyme preparations. Format: biochemical, rats. The following applies: solubilized enzyme from rat liver microsomes, 14C-HMG-CoA substrate; read-out: IC50, molar concentration of the compound required for 50% inhibition of HMG-CoA reductase. As to the method:
The HMG-CoA reductase activity was measured on solubilized enzyme preparations from liver microsomes of rats which, after changing over the day/night rhythm, were induced with cholestyramine (®Cuemid).
The substrate used was (S,R)^14 C-HMG-CoA, and the concentration of NADPH was maintained during the incubation by a regenerating system. ^14 C-mevalonate was removed from the substrate and other products (for example ^14 C-HMG) by column elution, with the elution profile of each individual sample being determined. ^3 H-mevalonate was not included in every test because the determination was of the relative inhibitory effect. In each series of tests, the enzyme-free control, the enzyme-containing normal mixture (=100%) and one with added product, final concentration 10^-5 to 10^-9 M, were treated together. Each individual value was formed as the mean of 3 parallel samples. The significance of the differences between the means for product-free and product-containing samples was assessed by the t test.
The method described above was used to determine the figures for the inhibition of HMG-CoA reductase by the compounds according to the invention (IC50 /mol/liter signifies the molar concentration of the compound required for 50% inhibition): […]

For test [3] the following is noted: tests on humans; cited from earlier work.
For test [4] the following is noted: rat; cited from earlier work.

Like-named read-outs stand apart in the source and are kept apart here.

As to `CC(C)c1nnc(-c2ccc(F)cc2)c(-c2ccc(F)cc2)c1/C=C/[C@@H](O)C[C@@H](O)CC(=O)O` (relative stereo) [Example 13a, Sodium 7-[3,4-di(4-fluorophenyl)-6-isopropylpyridazin-5-yl]-3,5-dihydroxy-6-heptenoate], the IC50 in test [1] turned out to be 50 nM; in test [2] it was 1.7 nM.

Consider `CC(O)(CC(=O)O)CC(=O)O` [3-Hydroxy-3-methylglutaric acid], for which the cholesterol-lowering action entry in test [3] and in test [4] was “significant cholesterol-lowering action” throughout.

As to `CC(C)c1nnc(-c2ccc(F)cc2)c(-c2ccc(F)cc2)c1/C=C/[C@@H](O)C[C@@H](O)CC(=O)O` [Example 19a, Sodium 7-[3,4-di(4-fluorophenyl)-6-isopropylpyridazin-5-yl]-3(R),5(S)-dihydroxy-6(E)-heptenoate], the values for the IC50 in test [1] and in test [2] were 25 nM and 1.3 nM, respectively.
